# Experimental data: ChEMBL document CHEMBL5247625, “Discovery and characterization of novel potent BCR-ABL degraders by conjugating allosteric inhibitor” (Eur J Med Chem, 2022)
# Active and inactive are the calls of the source. The rule behind the calls is not given here.
# Experiments:
# [1] = molecular target: Bcr/Abl fusion protein (Homo sapiens) (UniProt P00519+P11274); experiment: Inhibition of BCR-ABL phosphorylation at Tyr245 residue in human K562 cells at 100 nM incubated for 6 hrs followed by compound washout measured upto 96 hrs by Western blotting analysis; format: cell-based
# [2] = tested on: K562; experiment: Cytotoxicity against human K562 cells assessed as inhibition of cell growth at 100 nM incubated for 6 hrs followed by compound washout measured upto 96 hrs; format: functional, cell-based
# [3] = molecular target: Crk-like protein (Homo sapiens) (UniProt P46109); experiment: Inhibition of CRKL phosphorylation at Tyr207 residue in human K562 cells at 100 nM incubated for 6 hrs followed by compound washout measured upto 96 hrs by Western blotting analysis; format: cell-based
# [4] = molecular target: T1, Protein cereblon/Tyrosine-protein kinase ABL1/Breakpoint cluster region protein (Homo sapiens, UniProt P00519+P11274+Q96SW2); experiment: Protac activity at CRBN/BCR-ABL in human K562 cells assessed as increase in BCR-ABL degradation at 100 nM by Western blotting analysis; format: cell-based
# Target sequence in this assay (P00519 whole entry, looked up): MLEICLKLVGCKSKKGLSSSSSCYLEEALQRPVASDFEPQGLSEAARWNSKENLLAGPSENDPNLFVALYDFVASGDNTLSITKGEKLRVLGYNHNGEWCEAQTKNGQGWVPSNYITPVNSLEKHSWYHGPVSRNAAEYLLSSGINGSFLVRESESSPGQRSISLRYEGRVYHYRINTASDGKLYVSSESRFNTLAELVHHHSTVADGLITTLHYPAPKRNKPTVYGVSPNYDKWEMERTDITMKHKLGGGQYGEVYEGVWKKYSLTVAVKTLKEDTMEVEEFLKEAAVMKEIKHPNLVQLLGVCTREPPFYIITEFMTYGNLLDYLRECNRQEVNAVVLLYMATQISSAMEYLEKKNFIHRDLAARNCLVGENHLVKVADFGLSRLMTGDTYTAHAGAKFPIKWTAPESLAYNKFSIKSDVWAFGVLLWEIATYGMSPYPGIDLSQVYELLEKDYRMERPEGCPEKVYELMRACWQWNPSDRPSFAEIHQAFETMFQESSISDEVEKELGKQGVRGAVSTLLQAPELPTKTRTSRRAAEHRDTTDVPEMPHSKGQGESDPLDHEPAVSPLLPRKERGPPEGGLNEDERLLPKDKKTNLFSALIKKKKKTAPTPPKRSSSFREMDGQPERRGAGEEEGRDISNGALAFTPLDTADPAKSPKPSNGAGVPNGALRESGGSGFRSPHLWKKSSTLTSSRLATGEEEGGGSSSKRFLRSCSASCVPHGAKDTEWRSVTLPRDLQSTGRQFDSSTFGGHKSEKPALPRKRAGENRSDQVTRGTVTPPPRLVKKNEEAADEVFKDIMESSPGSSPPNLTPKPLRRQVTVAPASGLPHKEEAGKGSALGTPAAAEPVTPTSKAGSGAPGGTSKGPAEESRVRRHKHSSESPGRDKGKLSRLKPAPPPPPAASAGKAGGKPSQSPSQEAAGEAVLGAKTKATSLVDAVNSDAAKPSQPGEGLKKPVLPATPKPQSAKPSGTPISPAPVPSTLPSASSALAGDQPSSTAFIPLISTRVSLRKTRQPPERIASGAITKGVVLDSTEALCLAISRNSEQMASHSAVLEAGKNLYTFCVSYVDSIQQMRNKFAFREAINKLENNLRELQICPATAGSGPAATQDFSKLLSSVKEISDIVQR
# Target sequence in this assay (P11274 whole entry, looked up): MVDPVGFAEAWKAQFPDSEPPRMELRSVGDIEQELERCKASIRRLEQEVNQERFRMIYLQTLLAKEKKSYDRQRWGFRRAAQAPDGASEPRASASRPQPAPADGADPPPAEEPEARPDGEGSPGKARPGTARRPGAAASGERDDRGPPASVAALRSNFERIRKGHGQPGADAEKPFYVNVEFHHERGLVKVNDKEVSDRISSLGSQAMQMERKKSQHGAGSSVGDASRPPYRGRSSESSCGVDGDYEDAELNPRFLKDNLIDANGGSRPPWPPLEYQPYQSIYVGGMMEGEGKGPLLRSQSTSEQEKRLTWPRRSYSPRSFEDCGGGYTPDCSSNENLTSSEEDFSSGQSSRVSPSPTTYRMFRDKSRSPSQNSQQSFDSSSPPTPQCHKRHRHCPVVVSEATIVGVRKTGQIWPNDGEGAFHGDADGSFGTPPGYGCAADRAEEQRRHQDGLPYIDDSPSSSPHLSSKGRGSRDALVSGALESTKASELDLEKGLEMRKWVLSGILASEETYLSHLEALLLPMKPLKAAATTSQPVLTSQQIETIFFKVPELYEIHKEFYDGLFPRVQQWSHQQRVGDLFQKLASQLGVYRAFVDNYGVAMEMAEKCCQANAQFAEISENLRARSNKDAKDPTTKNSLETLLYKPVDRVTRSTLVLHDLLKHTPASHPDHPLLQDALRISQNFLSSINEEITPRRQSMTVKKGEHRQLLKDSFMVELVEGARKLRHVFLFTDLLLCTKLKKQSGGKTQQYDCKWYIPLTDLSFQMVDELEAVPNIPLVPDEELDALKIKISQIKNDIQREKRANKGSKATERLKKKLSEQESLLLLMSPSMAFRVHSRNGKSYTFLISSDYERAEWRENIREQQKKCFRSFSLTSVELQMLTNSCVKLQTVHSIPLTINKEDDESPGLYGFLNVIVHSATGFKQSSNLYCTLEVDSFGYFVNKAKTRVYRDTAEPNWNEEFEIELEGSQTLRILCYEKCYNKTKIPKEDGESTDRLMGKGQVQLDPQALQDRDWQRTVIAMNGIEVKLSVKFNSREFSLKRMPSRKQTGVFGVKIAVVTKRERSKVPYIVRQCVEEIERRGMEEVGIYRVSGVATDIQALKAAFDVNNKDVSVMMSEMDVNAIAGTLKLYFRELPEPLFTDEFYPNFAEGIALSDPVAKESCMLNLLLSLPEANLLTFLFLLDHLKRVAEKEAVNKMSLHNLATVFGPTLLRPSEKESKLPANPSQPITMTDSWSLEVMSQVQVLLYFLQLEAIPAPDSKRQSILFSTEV
# Target sequence in this assay (Q96SW2 whole entry, looked up): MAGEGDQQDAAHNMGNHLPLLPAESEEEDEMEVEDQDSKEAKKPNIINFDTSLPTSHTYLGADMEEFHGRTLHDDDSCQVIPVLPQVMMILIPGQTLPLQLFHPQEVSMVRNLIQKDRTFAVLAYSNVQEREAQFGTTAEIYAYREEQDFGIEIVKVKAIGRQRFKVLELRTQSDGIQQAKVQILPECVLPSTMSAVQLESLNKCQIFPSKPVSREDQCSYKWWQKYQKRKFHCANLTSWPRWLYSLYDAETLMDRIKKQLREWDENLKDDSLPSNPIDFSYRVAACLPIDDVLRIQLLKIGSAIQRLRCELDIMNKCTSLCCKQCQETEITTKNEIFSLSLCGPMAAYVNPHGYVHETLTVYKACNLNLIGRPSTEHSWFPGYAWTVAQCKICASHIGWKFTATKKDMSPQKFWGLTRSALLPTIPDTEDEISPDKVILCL
# [5] = molecular target: Crk-like protein (Homo sapiens) (UniProt P46109); experiment: Inhibition of CRKL phosphorylation at Tyr207 residue in human K562 cells at 100 nM by Western blotting analysis; format: cell-based; conditions: time <= 18.0 hrs, TDE = time-dependent effect
# [6] = molecular target: T1, Protein cereblon/Tyrosine-protein kinase ABL1/Breakpoint cluster region protein; experiment: Protac activity at CRBN/BCR-ABL in human K562 cells assessed as increase in BCR-ABL degradation incubated for 16 hrs by Western blotting analysis; format: cell-based
# Target sequence in this assay (P00519 whole entry): as the sequence (P00519 whole entry, looked up) above
# Target sequence in this assay (P11274 whole entry): as the sequence (P11274 whole entry, looked up) above
# Target sequence in this assay (Q96SW2 whole entry): as the sequence (Q96SW2 whole entry, looked up) above
# [7] = molecular target: T2, Signal transducer and activator of transcription 5A (Homo sapiens) (UniProt P42229); experiment: Inhibition of STAT5 phosphorylation at Tyr694 residue in human K562 cells at 0.3 to 100 nM incubated for 16 hrs by Western blotting analysis; format: cell-based; conditions: dose 0.3-100 nM
# T2 sequence (whole entry): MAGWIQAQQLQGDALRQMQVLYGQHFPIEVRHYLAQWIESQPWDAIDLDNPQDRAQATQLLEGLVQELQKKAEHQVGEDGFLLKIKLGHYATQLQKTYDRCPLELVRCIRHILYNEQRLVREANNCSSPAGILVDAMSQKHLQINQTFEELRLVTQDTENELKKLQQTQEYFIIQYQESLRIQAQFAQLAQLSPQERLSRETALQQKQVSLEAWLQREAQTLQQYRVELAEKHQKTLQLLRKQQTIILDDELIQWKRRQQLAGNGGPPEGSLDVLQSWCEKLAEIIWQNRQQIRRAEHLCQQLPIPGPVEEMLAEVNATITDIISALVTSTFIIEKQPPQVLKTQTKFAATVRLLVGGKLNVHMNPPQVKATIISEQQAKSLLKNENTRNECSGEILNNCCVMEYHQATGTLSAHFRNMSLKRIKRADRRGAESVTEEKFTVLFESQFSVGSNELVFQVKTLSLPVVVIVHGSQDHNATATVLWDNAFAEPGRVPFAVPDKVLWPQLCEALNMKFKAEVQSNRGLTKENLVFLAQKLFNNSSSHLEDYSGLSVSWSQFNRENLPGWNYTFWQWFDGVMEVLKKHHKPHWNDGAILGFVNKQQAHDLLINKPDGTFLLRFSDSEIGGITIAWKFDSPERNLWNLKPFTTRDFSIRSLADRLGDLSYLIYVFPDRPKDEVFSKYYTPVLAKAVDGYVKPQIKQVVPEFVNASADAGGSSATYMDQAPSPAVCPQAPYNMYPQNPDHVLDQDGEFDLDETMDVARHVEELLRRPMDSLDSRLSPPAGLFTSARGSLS
# [8] = tested on: Protein cereblon/Tyrosine-protein kinase ABL1/Breakpoint cluster region protein (Mus musculus), P00519+P11274+Q8C7D2 [P223S]; experiment: Protac activity at CRBN/asciminib resistance BCR-ABL P223S mutant in mouse 32D cells assessed as increase in BCR-ABL degradation at 1 to 1000 nM by Western blotting analysis; format: cell-based; conditions: dose 1-1000 nM
# [9] = molecular target: T1, Protein cereblon/Tyrosine-protein kinase ABL1/Breakpoint cluster region protein; experiment: Protac activity at CRBN/BCR-ABL in human K562 cells assessed as induction of c-ABL degradation at 100 nM pretreated with lenalidomide for 2 hrs followed by compound addition measured after 8 hrs by Western blotting analysis; format: cell-based; conditions: time 10.0 hrs
# Target sequence in this assay (P00519 whole entry, looked up): as the sequence (P00519 whole entry, looked up) above
# Target sequence in this assay (P11274 whole entry, looked up): as the sequence (P11274 whole entry, looked up) above
# Target sequence in this assay (Q96SW2 whole entry, looked up): as the sequence (Q96SW2 whole entry, looked up) above
# [10] = tested on: K562; experiment: cells; conditions: Homo sapiens, K562, 48 h
# Description: Antiproliferative activity against human K562 cells assessed as inhibition of cell growth incubated for 2 days by CCK8 assay
# [11] = tested on: Protein cereblon/Tyrosine-protein kinase ABL1/Breakpoint cluster region protein (Mus musculus), P00519+P11274+Q8C7D2 [Y253H/E255V]; experiment: Protac activity at CRBN/BCR-ABL Y253H/E255V double mutant in mouse 32D cells assessed as increase in p-BCR-ABL degradation at 1 to 1000 nM by Western blotting analysis; format: cell-based; conditions: dose 1-1000 nM
# [12] = molecular target: T1, Protein cereblon/Tyrosine-protein kinase ABL1/Breakpoint cluster region protein; experiment: Protac activity at CRBN/BCR-ABL in human K562 cells assessed as increase in BCR-ABL degradation at 100 nM incubated for 6 hrs followed by compound washout measured upto 96 hrs by Western blotting analysis; format: cell-based
# Target sequence in this assay (P00519 whole entry, looked up): as the sequence (P00519 whole entry, looked up) above
# Target sequence in this assay (P11274 whole entry, looked up): as the sequence (P11274 whole entry, looked up) above
# Target sequence in this assay (Q96SW2 whole entry, looked up): as the sequence (Q96SW2 whole entry, looked up) above
# [13] = molecular target: T1, Protein cereblon/Tyrosine-protein kinase ABL1/Breakpoint cluster region protein; experiment: Protac activity at CRBN/BCR-ABL in human K562 cells assessed as induction of c-ABL degradation at 100 nM pretreated with asciminib for 2 hrs followed by compound addition measured after 8 hrs by Western blotting analysis; format: cell-based; conditions: time 10.0 hrs
# Target sequence in this assay (P00519 whole entry, looked up): as the sequence (P00519 whole entry, looked up) above
# Target sequence in this assay (P11274 whole entry, looked up): as the sequence (P11274 whole entry, looked up) above
# Target sequence in this assay (Q96SW2 whole entry, looked up): as the sequence (Q96SW2 whole entry, looked up) above
# [14] = molecular target: T1, Protein cereblon/Tyrosine-protein kinase ABL1/Breakpoint cluster region protein; experiment: Protac activity at CRBN/BCR-ABL in human K562 cells assessed as c-ABL turnover rate in presence of cycloheximide by Western blotting analysis; format: cell-based
# Target sequence in this assay (P00519 whole entry, looked up): as the sequence (P00519 whole entry, looked up) above
# Target sequence in this assay (P11274 whole entry, looked up): as the sequence (P11274 whole entry, looked up) above
# Target sequence in this assay (Q96SW2 whole entry, looked up): as the sequence (Q96SW2 whole entry, looked up) above
# [15] = molecular target: T1, Protein cereblon/Tyrosine-protein kinase ABL1/Breakpoint cluster region protein; experiment: Protac activity at CRBN/BCR-ABL in human K562 cells assessed as induction of BCR-ABL degradation at 100 nM by Western blotting analysis; format: cell-based; conditions: time 4.0 hrs, TDE = time-dependent effect
# Target sequence in this assay (P00519 whole entry, looked up): as the sequence (P00519 whole entry, looked up) above
# Target sequence in this assay (P11274 whole entry, looked up): as the sequence (P11274 whole entry, looked up) above
# Target sequence in this assay (Q96SW2 whole entry, looked up): as the sequence (Q96SW2 whole entry, looked up) above
# [16] = molecular target: T1, Protein cereblon/Tyrosine-protein kinase ABL1/Breakpoint cluster region protein; experiment: Protac activity at CRBN/BCR-ABL in human K562 cells assessed as BCR-ABL turnover rate in presence of cycloheximide by Western blotting analysis; format: cell-based
# [17] = molecular target: T1, Protein cereblon/Tyrosine-protein kinase ABL1/Breakpoint cluster region protein; experiment: Protac activity at CRBN/BCR-ABL in human K562 cells assessed as induction of BCR-ABL degradation at 100 nM pretreated with MG132 for 2 hrs followed by compound addition measured after 8 hrs by Western blotting analysis; format: cell-based; conditions: time 10.0 hrs
# [18] = molecular target: T1, Protein cereblon/Tyrosine-protein kinase ABL1/Breakpoint cluster region protein; experiment: Protac activity at CRBN/BCR-ABL in human K562 cells assessed as increase in BCR-ABL degradation at 100 nM incubated for 6 hrs followed by compound washout measured after 4 hrs by Western blotting analysis; format: cell-based
# [19] = molecular target: T2, Signal transducer and activator of transcription 5A (Homo sapiens); experiment: Inhibition of STAT5 phosphorylation at Tyr694 residue in human K562 cells at 100 nM incubated for 6 hrs followed by compound washout measured upto 96 hrs by Western blotting analysis; format: cell-based
# [20] = tested on: K562; experiment: Down regulation of […] expression in human K562 cells at 100 nM measured after 16 hrs by LC-MS analysis; format: functional, cell-based
# [21] = molecular target: T1, Protein cereblon/Tyrosine-protein kinase ABL1/Breakpoint cluster region protein; experiment: Protac activity at CRBN/BCR-ABL in human K562 cells assessed as induction of BCR-ABL degradation at 100 nM pretreated with MLN4924 for 2 hrs followed by compound addition measured after 8 hrs by Western blotting analysis; format: cell-based; conditions: time 10.0 hrs
# [22] = tested on: Protein cereblon/Tyrosine-protein kinase ABL1/Breakpoint cluster region protein (Mus musculus), P00519+P11274+Q8C7D2 [V468F]; experiment: Protac activity at CRBN/BCR-ABL V468F mutant in mouse 32D cells assessed as increase in BCR-ABL degradation at 1 to 1000 nM by Western blotting analysis; format: cell-based; conditions: dose 1-1000 nM
# Crk-like protein (Homo sapiens), sequence (P46109 whole entry): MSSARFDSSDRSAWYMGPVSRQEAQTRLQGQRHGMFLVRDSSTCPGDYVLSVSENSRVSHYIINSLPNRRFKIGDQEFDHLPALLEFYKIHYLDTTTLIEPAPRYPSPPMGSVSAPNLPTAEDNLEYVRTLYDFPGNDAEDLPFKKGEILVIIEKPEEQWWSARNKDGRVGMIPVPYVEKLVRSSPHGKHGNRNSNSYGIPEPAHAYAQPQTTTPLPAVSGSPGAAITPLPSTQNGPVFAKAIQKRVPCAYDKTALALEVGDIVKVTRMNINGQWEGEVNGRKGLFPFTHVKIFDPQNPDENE
# Bcr/Abl fusion protein (Homo sapiens), sequence (P00519 whole entry, looked up, the tested form may be a part): as the sequence (P00519 whole entry, looked up) above
# Bcr/Abl fusion protein (Homo sapiens), sequence (P11274 whole entry, looked up, the tested form may be a part): as the sequence (P11274 whole entry, looked up) above
compound,measurement,setting,value
O=C1CCC(N2Cc3c(SCCCCCCN4CCN(C5CCN(c6ncc(C(=O)Nc7ccc(OC(F)(F)Cl)cc7)cc6-c6ccn[nH]6)CC5)CC4)cccc3C2=O)C(=O)N1 (configuration not stated),inhibition,[1],inactive
same,Activity,[2],Active
same,inhibition,[3],inactive
same,Activity,[4],91.2%
same,inhibition,[5],Tde
same,DC50,[6],2.7 nM
same,inhibition,[7],Active
same,Activity,[8],Active
same,Activity,[9],inactive
same,IC50,[10],12 nM
same,Activity,[11],Active
same,Activity,[12],inactive
same,Activity,[13],inactive
same,Activity,[14],Active
same,Activity,[15],Tde
same,Activity,[16],Active
same,Activity,[17],inactive
same,Activity,[18],inactive
same,inhibition,[19],inactive
same,Activity,[20],Active
same,Activity,[21],inactive
same,Activity,[22],inactive
